{"source": "patent US8044200B2", "about": "“Synthesis and purification of pteroic acid and conjugates thereof” (Endocyte, Inc., priority 2005, dated 2011)", "test_system": "M109 cells", "assay": "Effect of isolated folate-fluorescein conjugates on growth of solid tumors (subcutaneous M109 tumors in fluorescein-immunized mice)", "assay_type": "in vivo", "conditions": "female Balb/c mice preimmunized with KLH-fluorescein; s.c. M109 tumor; 500, 2000 or 5000 nmol/kg i.p., days 1-19; in combination with IL-2 and IFN-α; versus PBS control; FIG. 2", "protocol": "Six to eight-week old (˜20-22 grams) female Balb/c mice (8 mice/group) were immunized subcutaneously at multiple sites with fluorescein-labeled keyhole limpet hemocyanin (KLH) using a commercial saponin adjuvant (GPI-0100; Galenica). After assuring that anti-fluorescein antibody titers were high in all mice (as evidenced by the results of ELISA assays of serum samples of the mice), each animal was injected subcutaneously in the shoulder with 1×10^6 M109 cells (a syngeneic lung cancer cell line that expresses high levels of the folate receptor; day 0) following prior immunization with KLH-fluorescein. The immunizations with folate-fluorescein after tumor cell implantation consisted of 500, 2000, or 5000 nmol/kg of folate-fluorescein, conjugated via a gamma carboxyl-linked ethylene diamine bridge, given in 19 intraperitoneal doses at 24 hour intervals (days 1-19). Control animals were injected with phosphate buffered saline (PBS). A series of 5 daily injections (five times a week) for three weeks of 20,000 IU/day of recombinant human IL-2 were administered to all mice in order to stimulate the immune system. A series of 3 injections for three weeks of 25,000 U/day of recombinant human IFN-α were also administered to all mice. The efficacy of this immunotherapy was then evaluated by monitoring tumor volume (mm^3) using a caliper."}
{"compound": "Nc1nc2ncc(CNc3ccc(C(=O)NC(CCC(=O)NCCNC(=S)Nc4ccc5c(c4)C(=O)OC54c5ccc(O)cc5Oc5cc(O)ccc54)C(=O)O)cc3)nc2c(=O)[nH]1", "note": "(stereo not shown) [folate-fluorescein]", "values": [{"measurement": "growth of solid tumors (tumor volume)", "value": "significantly inhibited"}]}
